Measurements as given in patent publication US8343968B2, “Case of renin inhibitors” (Merck Canada Inc., priority 2007, dated 2013).

What was measured:
human recombinant renin = molecular target: T1, human recombinant renin (Homo sapiens, UniProt P00797); assay: Inhibition of human recombinant renin (buffer), enzymatic in vitro assay with Ang I EIA; format: biochemical; details: assay buffer PBS, 1 mM EDTA, 0.1% BSA; human recombinant renin 40 pM
T1 sequence (P00797 67-406): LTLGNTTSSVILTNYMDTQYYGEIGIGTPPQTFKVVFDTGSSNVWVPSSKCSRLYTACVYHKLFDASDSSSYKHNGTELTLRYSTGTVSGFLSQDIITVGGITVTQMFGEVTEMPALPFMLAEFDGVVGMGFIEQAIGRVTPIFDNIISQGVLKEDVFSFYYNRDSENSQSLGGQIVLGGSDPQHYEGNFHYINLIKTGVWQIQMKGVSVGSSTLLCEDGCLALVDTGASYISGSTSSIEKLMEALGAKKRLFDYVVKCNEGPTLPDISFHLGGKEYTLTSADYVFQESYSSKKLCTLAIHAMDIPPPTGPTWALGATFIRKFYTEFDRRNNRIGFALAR
Method: Inhibition of Human Recombinant Renin
The enzymatic in vitro assay was performed in 384-well polypropylene plates (Nunc). The assay buffer consisted of PBS (Gibco BRL) including 1 mM EDTA and 0.1% BSA. The reaction mixture were composed of 47.5 μL per well of an enzyme mix and 2.5 μL of renin inhibitors in DMSO. The enzyme mix was premixed at 4° C. and consists of the following components: • human recombinant renin (40 pM) • synthetic human angiotensin(1-14) (0.5 μM) • hydroxyquinoline sulfate (1 mM) The mixtures were then incubated at 37° C. for 3 h. The enzyme reaction was stopped by placing the reaction plate on wet ice.
(§1) To determine the enzymatic activity and its inhibition, the accumulated Ang I was detected by an enzyme immunoassay (EIA) in 384-well plates (Nunc). 5 μL of the reaction mixture or standards were transferred to immuno plates which were previously coated with a covalent complex of Ang I and bovine serum albumin (Ang I-BSA). 75 μL of Ang I-antibodies in assay buffer above including 0.01% Tween 20 were added and the plates were incubated at 4° C. overnight.
An alternative protocol could be used by stopping the enzymatic reaction with 0.02N final concentration of HCl. 5 μL of the reaction mixture or standards were transferred to immuno plates and 75 μL of Ang I-antibodies in assay buffer above including 0.01% Tween 20 were added and the plates were incubate at RT for 4 h.
The plates were washed 3 times with PBS including 0.01% Tween 20, and then incubated for 2 h at RT with an anti rabbit-peroxidase coupled antibody (WA 934, Amersham).

[1] = molecular target: T2, renin in human plasma (human recombinant renin) (Homo sapiens, UniProt P00797); assay: Inhibition of renin in human plasma, enzymatic in vitro assay with Ang I EIA; format: biochemical; details: human plasma from 10 normal donors; human recombinant renin 3 pM
T2 construct: host or cells: human plasma from 10 normal donors as matrix
T2 sequence (P00797 67-406): T1 sequence (P00797 67-406)
Method: Inhibition of Renin in Human Plasma
The enzymatic in vitro assay was performed in 384-well polypropylene plates (Nunc). The assay buffer consisted of PBS (Gibco BRL) including 1 mM EDTA and 0.1% BSA. The reaction mixture was composed of 80 μL per well of human plasma, enzyme, Ang I-antibodies mix and 5 μL of renin inhibitors in DMSO. The human plasma mix was premixed at 4° C. and consists of • human plasma from 10 normal donors • human recombinant renin (3 pM) • Ang I-antibodies. The mixtures were then incubated at 37° C. for 2 h.
as §1, with “10” for “5”, “70” for “75”, “μL” for “μL of Ang I-antibodies in”, “buffer” for “buffer above including 0.01% Tween 20”, “overnight. The plates were washed 3 times with PBS including 0.01% Tween 20, and then incubated for 2 h at RT with an anti rabbit-peroxidase coupled antibody (WA 934, Amersham).” for “overnight.”

IC50 (human recombinant renin) [nM]	IC50 [1] [nM]	SMILES
0.064	11	CCOC(=O)[C@@H]1C[C@H]1COc1cc(CCCOC)cc(CN(C(=O)[C@H]2CNCC[C@@H]2c2ccc(OCCOc3c(Cl)cc(C)cc3Cl)cc2)C2CC2)c1 [Example 1, Ethyl (1R,2R)-2-{[3-({cyclopropyl[((3R,4S)-4-{4-[2-(2,6-dichloro-4-methylphenoxy)-ethoxy]phenyl}piperidin-3-yl)carbonyl]amino}methyl)-5-(3-methoxypropyl)phen-oxy]methyl}cyclopropanecarboxylate]
0.03	2.3	COCCCc1cc(CN(C(=O)[C@H]2CNCC[C@@H]2c2ccc(OCCOc3c(Cl)cc(C)cc3Cl)cc2)C2CC2)cc(OCC2(Cc3nn[nH]n3)CC2)c1 [Example 14, (3R,4S)—N-Cyclopropyl-4-{4-[2-(2,6-dichloro-4-methylphenoxy)ethoxy]phenyl}-N-(3-(3-methoxypropyl)-5-{[1-(2H-tetrazol-5-ylmethyl)cyclopropyl]methoxy}benzyl)-piperidine-3-carboxamide]
0.036	5.6	COCCCc1cc(CN(C(=O)[C@H]2CNCC[C@@H]2c2ccc(OCCOc3c(Cl)cc(C)cc3Cl)cc2)C2CC2)cc(OCC2(CC(=O)O)CC2)c1 [Example 12, (1-{[3-({Cyclopropyl[((3R,4S)-4-{4-[2-(2,6-dichloro-4-methylphenoxy)ethoxy]-phenyl}piperidin-3-yl)carbonyl]amino}methyl)-5-(3-methoxypropyl)phenoxy]-methyl}cyclopropyl)acetic Acid]
0.027	1.1	COCCCc1cc(CN(C(=O)[C@H]2CNCC[C@@H]2c2ccc(OCCOc3c(Cl)cc(C)cc3Cl)cc2)C2CC2)cc(OC[C@@H]2C[C@H]2C(=O)O)c1 [Example 2]
